US9315531B2, “Titanocene-gold derivatives comprising thiolato ligands” (Research Foundation of the City University of New York, priority 2014, dated 2016)

Test system: Caki-1 renal carcinoma
Test: Caki-1 xenografts in mice, tumor growth
Experimental: Study of the effects of 2 in Caki-1 xenografts in mice: twelve female NOD.CB17-Prkdc scid/J (non-obese diabetic—severe combined immunodeficiency) from Jackson Laboratory (Bar Harbor, Me. and Sacramento, Calif., USA) were used for the xenograft experiment (ages 8 to 12 weeks and weighing 19-22 g) were used. Each mouse received 8×10^6 tumor cells subcutaneously without anesthesia. Exponentially growing Caki-1 human kidney cancer cells were suspended in 1:1 ratio 50 μl phosphate-buffered saline (PBS; pH 7.4) plus 50 μl of matrigel (BD Biosciences, San Jose, Calif., USA) were injected subcutaneously on both left and right flank of each mice. The diameter of the tumors was measured once weekly using an electronic digital caliper and the tumor volume (TV) was calculated according to the empirical equation TV=(a)(b^2)×π/6 where a=longest dimension; b=largest dimension orthogonal to a. The median volumes of each group were normalized to the initial tumor volume resulting in the relative tumor volume. […] Treatment started when tumors were palpable (about 6 mm diameter). Mice were randomized to treatment groups based on their starting tumor burden at twelve weeks of age to ensure equivalent distribution between the three groups. At trial end-point the mice were sacrificed and tumors measured again after excision and then processed for further analysis. Histological as well as biochemical evaluations of blood, liver, spleen, and kidney, were conducted.

## [(η-C5H5)2TiMe(μ-mba)Au(PPh3)] [Compound 2]
Between day 1 and day 28 of treatment, total of 14 doses
  decrease in tumor size (shrinkage) from the starting volume: 67%
Tumor measured on day 28, after 14th dose, every other day dosing (compound 6 […], compound 2 3 mg/kg)
  Primary Tumor: 41.33 ± 13.00 mm^3
Xenograft protocol, 14 doses every other day
  weight loss in treated mice: no weight loss
